Assay [1] addresses T1, extracellular domain human GC-A recombinant protein (Homo sapiens, UniProt P16066).
T1 construct: extracellular domain human GC-A recombinant protein; purchased My BioSource, Inc. San Diego, CA
T1 sequence (P16066 33-473 limits assumed): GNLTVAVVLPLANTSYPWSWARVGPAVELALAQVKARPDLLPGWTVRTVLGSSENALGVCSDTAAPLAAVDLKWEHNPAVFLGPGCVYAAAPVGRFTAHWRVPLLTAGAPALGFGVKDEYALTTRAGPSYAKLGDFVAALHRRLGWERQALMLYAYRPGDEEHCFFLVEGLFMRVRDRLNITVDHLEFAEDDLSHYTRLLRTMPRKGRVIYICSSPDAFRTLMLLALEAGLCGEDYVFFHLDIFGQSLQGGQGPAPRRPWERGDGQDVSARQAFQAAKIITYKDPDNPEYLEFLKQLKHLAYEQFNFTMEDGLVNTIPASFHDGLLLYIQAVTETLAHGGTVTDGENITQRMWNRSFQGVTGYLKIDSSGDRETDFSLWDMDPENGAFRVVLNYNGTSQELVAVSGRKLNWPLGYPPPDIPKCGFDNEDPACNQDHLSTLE
In words: Surface plasmon resonance binding to GC-A receptor. The settings on record: acetate salt, SPR 25° C., 1:1 Langmuir model; for kon: read-out: ka association rate; for koff: read-out: kd dissociation rate. Here is the method: Surface plasmon resonance (SPR) measurements were performed at 25° C. on a BI-4500 SPR instrument (Biosensing Instrument Inc. Tempe AZ). As per the instructions by the Biosensing instrument manual, 400 mM nickel sulfate in deionized water was linked to the Ni-NTA sensor chip (Biosensing Instrument Inc. Tempe AZ. Then 30 μg/ml of extracellular domain human GC-A recombinant protein (My BioSource, Inc. San Diego, CA), containing 12 histidine residues on the C-terminus, was then immobilized to the nickel sulfate on the Ni-NTA sensor chip. After, the chip was washed with buffer (150 mM NaCl, 50 μM EDTA pH 7.4, 0).1% DMSO), then 100 μL of sequentially diluted Compound 3 acetate salt (0.125, 0.25, 0.5, 1, 2 μM), Compound 1 acetate salt (6.25, 12.5, 25, 50, 100 nM) or Compound 2 acetate salt (0.125, 0.25, 0.5, 1, 2 μM) was injected at the rate of 60 ul/min and allowed to dissociate for 60 seconds. Data was collected as sensorgrams. Binding kinetics were derived from sensorgrams using BI-Data Analysis Program (Biosensing Instrument, Tempe AZ). Affinity analysis of GC-A with Compound 3, Compound 2 and/or Compound 1 interactions were performed using a 1:1 Langmuir binding model. Two series were performed for all studies.

The next assay has as its target T2, human GC-A (Homo sapiens, UniProt P16066).
T2 construct: host or cells: HEK293
T2 sequence (P16066 33-1061): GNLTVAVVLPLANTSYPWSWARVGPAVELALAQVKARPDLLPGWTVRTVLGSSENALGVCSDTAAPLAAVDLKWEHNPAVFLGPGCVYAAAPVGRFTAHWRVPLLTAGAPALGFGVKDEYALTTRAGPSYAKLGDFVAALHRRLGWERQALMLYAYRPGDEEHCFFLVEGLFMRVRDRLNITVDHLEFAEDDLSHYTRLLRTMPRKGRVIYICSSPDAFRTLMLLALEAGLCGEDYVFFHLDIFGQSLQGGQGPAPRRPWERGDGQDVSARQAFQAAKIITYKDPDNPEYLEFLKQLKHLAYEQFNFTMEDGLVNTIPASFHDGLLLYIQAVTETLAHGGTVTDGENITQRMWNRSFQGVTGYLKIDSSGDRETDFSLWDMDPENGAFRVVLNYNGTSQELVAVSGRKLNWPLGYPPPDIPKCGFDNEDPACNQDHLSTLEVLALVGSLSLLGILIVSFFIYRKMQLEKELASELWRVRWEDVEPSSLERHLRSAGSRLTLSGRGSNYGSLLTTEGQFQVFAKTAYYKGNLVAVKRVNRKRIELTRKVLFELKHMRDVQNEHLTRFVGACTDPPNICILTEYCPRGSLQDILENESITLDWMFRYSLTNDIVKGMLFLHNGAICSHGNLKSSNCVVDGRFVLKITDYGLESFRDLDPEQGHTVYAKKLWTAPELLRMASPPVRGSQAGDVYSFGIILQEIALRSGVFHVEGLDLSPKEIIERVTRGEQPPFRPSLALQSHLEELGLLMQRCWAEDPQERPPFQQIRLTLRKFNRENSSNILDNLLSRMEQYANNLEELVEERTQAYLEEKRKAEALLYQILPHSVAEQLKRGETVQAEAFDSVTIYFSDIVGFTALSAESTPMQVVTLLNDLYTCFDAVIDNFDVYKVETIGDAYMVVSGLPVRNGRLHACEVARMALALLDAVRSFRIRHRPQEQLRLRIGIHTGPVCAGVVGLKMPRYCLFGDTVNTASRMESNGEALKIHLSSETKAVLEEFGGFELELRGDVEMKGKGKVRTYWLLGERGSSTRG
T2 sequence (P01160 124-151 partner limits assumed): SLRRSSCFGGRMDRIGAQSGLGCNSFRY
In words: cGMP levels (ELISA) in HEK293 cells overexpressing human GC-A. Format: cell-based. The settings on record: acetate salt; for cGMP generation in the presence of ANP: ANP (10^−10 M). How it is done: HEK293 GC-A cells were seeded in 48-well plates (1×10^5 cell per well) and cultured overnight to reach 80-90% confluency. The treatment buffer that consists of Hank's Balanced Salt Solution (HBSS), 0.1% BSA, 2 mM HEPES and 0.5 mM 3-isobutyl-1-methylzanthine (IBMX—a non-specific phosphodiesterase inhibitor), was used in all experiments. Compound 3, Compound 1, and Compound 2 acetate salt were dissolved in DMSO and ANP was dissolved in phosphate buffered solution (PBS). On the experimental day, growth media was replaced with treatment buffer and HEK293 GC-A cells were 1) treated with Compound 3, Compound 1 or Compound 2 at doses of 1 or 10 μM (reaching a final concentration of 0).1% DMSO) alone for 5 min at 37° C.: or 2) pretreated with Compound 3, Compound 1 or Compound 2 at doses of 1 or 10 μM (reaching a final concentration of 0.1% DMSO) for 5 min at 37° C., followed by a treatment with ANP (10^-10 M) for additional 10 min at 37° C. HEK293 GC-A cells were also treated with vehicle (0.1% DMSO) which served as a negative control. Then all cells were washed with PBS once and lysed with 0.1M HCl. Intracellular cGMP was measured in the lysate using a commercial cGMP ELISA kit (Enzo Life Sciences, Farmingdale, NY) as instructed by the manufacturer.

On to `CN(C)CCN1CCCC(C(=O)Nc2nc3c(F)cc(F)cc3s2)C1` (racemic) [Compound 3, N-(4,6-difluorobenzo[d]thiazol-2-yl)-1-(2-(dimethylamino)ethyl) piperidine-3-carboxamide], for which, in assay [1], the Kd turned out to be 176 nM, the kon is 113000 M⁻¹ s⁻¹ and the koff stood at 0.02 s⁻¹. On human GC-A (1 or 10 μM), the “cGMP generation in the presence of ANP” value was “dose dependent increase”. In addition, the “cGMP generation, compound alone” value at human GC-A (1 or 10 μM, without ANP, vs vehicle) is on record as “no effect”.
Turning to `CN(C)CCN1CCC[C@H](C(=O)Nc2nc3c(F)cc(F)cc3s2)C1` [Compound 1, (S)-N-(4,6-difluorobenzo[d]thiazol-2-yl)-1-(2-(dimethylamino)ethyl) piperidine-3-carboxamide], in assay [1], the dissociation constant (Kd) worked out at 12 nM, the kon is 1.09e+06 M⁻¹ s⁻¹ and the koff was found to be 0.014 s⁻¹. Further, the “cGMP generation in the presence of ANP” value on human GC-A (1 or 10 μM) was “dose response increase”. Further, the “cGMP generation in the presence of ANP, Compound 1 compared with Compound 2” value on human GC-A (both doses (1 and 10 μM), ANP (10^-10 M)) is “higher”.
For `CN(C)CCN1CCC[C@@H](C(=O)Nc2nc3c(F)cc(F)cc3s2)C1` [Compound 2, (R)-N-(4,6-difluorobenzo[d]thiazol-2-yl)-1-(2-(dimethylamino)ethyl) piperidine-3-carboxamide], in assay [1], the Kd came out at 121 nM, the kon stood at 430000 M⁻¹ s⁻¹ and the koff was found to be 0.052 s⁻¹. Also, the “cGMP generation in the presence of ANP” value at human GC-A (1 or 10 μM) is recorded as “dose response increase”.
